Here are results for 12 compounds from patent publication US9249129B2, “Morpholino substituted urea derivatives as mTOR inhibitors” (CELLZOME LIMITED, priority 2010, dated 2016).

Like-named read-outs stand apart in the source and are kept apart here. Bounds are passed on as bounds.

One experiment concerns the target T1, mTOR (Homo sapiens, UniProt P42345).
T1 construct: endogenous in cells; host or cells: Jurkat cells (ATCC TIB-152, clone E6-1), lysate
Description: mTOR kinobeads assay (dot blot detection). The class given is binding. The method in brief: (§1)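 Jurkat cell lysate (5 mg/mL protein) incubated 2 h in the cold with test compound (9-step 1:3 series) and immobilized phenylthiazole/phenylmorpholin-chromen ligand beads. Bead-bound kinases eluted, detected by specific antibody dot blot with infrared readout; IC50 from dose-response curves.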

Experiment [1] relates to S6RP serine-240/244 phosphorylation in HEK293T/17 cells. Description: In vitro phospho-S6 cellular assay (pS6RP S240/244). The experiment is classed as cell-based. Particulars: Homo sapiens, Table 6, 2 hours, S6RP Ser240/244, read-out: pS6 (phospho-S6 cell assay data, activity level). The gist of the method:
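HEK293T/17 cells in DMEM with 2% FCS treated with 8 compound concentrations (0.1% DMSO) for 2 h at 37 °C, then lysed. Phospho-S6RP Ser240/244 or phospho-Akt Ser473 quantified by MesoScale sandwich immunoassay with Sulfo-Tag detection; IC50 from variable-slope sigmoidal fit.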

A further experiment deals with T2, PI3Kβ (Homo sapiens, UniProt P42338).
T2 construct: endogenous in cells; host or cells: Jurkat cells (ATCC TIB-152) lysate, the only lysate described
In words: kinobeads assay, PI3K beta (dot blot detection). The class given is binding. As to conditions: Table 4, read-out: Inhibition values (IC50) PI3Kb.

The target of experiment [2] is T3, DNA-dependent protein kinase (DNA-PK) (Homo sapiens, UniProt P78527).
T3 construct: endogenous in cells; host or cells: Jurkat cells (ATCC TIB-152, clone E6-1), lysate
Description: kinobeads assay, DNA-PK (dot blot detection). The class given is binding. The method in brief:
as §1

Another experiment concerns the target T4, PI3Kα (Homo sapiens, UniProt P42336).
T4 construct: endogenous in cells; host or cells: Jurkat cells (ATCC TIB-152) lysate, the only lysate described
Description: kinobeads assay, PI3K alpha (dot blot detection). The experiment is classed as binding. As to conditions: Table 4, read-out: Inhibition values (IC50) PI3Ka.

Another experiment addresses T5, PI3Kγ (Homo sapiens, UniProt P48736).
T5 construct: endogenous in cells; host or cells: Jurkat cells (ATCC TIB-152) lysate, the only lysate described
In words: kinobeads assay, PI3K gamma (dot blot detection). The class given is binding. As to conditions: Table 4, read-out: Inhibition values (IC50) PI3Kg.

Another experiment deals with T6, PI3K delta (PI3Kd) (Homo sapiens, UniProt O00329).
T6 construct: endogenous in cells; host or cells: Jurkat cells (ATCC TIB-152, clone E6-1), lysate
Description: kinobeads assay, PI3K delta (dot blot detection). The class given is binding. The method in brief: as §1

Where [3] appears, read: Table 4, read-out: Inhibition values (IC50) mTOR.
[4] abbreviates: Table 4, read-out: Inhibition values (IC50) DNAPK.
The mark [5] stands for this setting: Table 4, read-out: Inhibition values (IC50) PI3Kd.

T5 sequence (P48736 whole entry): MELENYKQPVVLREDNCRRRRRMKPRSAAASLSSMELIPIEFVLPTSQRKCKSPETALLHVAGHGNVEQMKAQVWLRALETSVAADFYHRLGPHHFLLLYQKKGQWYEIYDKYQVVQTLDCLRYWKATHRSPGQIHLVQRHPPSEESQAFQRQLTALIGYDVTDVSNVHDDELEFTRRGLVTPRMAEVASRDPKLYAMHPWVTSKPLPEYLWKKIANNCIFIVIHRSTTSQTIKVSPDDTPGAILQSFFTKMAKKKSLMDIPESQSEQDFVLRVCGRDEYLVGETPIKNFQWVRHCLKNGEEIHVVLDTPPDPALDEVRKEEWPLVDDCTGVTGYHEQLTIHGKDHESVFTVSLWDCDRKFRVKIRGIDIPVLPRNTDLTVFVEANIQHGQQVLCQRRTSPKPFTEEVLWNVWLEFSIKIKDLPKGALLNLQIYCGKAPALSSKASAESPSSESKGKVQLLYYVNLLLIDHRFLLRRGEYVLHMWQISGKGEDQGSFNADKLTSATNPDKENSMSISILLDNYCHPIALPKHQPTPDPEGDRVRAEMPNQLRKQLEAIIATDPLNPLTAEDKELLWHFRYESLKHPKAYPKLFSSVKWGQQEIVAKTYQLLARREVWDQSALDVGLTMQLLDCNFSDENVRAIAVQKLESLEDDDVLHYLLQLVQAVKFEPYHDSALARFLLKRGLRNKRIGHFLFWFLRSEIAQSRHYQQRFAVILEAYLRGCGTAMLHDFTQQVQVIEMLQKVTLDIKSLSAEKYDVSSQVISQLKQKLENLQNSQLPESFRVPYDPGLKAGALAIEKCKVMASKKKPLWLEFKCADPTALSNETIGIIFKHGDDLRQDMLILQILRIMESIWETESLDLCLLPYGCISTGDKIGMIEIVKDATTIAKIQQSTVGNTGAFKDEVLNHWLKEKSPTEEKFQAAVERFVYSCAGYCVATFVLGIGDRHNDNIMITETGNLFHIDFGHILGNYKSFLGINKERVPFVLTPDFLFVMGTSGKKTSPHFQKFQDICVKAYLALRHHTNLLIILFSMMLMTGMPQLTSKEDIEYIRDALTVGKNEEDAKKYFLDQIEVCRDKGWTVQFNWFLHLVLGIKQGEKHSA
T4 sequence (P42336 whole entry): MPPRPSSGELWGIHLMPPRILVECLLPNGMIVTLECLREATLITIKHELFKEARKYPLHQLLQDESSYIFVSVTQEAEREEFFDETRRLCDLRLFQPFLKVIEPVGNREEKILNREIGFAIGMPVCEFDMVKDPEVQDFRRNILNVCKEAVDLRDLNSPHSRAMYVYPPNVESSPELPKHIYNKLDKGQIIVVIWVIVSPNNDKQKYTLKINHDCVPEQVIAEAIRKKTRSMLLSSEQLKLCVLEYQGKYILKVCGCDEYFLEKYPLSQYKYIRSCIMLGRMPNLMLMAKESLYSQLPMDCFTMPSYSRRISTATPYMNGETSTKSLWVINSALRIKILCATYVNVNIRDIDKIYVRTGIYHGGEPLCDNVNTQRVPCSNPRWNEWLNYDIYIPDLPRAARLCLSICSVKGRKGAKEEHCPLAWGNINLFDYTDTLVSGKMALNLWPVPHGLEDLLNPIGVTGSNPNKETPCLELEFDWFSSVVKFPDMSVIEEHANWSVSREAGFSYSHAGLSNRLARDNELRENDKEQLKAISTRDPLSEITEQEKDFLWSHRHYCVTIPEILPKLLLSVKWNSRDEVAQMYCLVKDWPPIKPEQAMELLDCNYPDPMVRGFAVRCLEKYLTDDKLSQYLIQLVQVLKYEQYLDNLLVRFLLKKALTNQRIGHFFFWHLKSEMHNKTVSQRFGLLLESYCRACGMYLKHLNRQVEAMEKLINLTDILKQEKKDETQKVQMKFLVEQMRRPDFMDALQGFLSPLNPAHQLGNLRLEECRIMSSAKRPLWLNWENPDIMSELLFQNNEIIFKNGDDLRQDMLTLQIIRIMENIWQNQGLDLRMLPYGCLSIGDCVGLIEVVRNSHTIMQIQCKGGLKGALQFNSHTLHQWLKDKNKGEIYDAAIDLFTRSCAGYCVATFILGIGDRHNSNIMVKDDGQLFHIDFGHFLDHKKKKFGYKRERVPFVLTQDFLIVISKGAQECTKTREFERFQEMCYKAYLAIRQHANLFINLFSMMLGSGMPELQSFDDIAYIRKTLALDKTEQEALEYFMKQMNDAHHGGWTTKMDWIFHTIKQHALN
T4 sequence (P27986 whole entry partner): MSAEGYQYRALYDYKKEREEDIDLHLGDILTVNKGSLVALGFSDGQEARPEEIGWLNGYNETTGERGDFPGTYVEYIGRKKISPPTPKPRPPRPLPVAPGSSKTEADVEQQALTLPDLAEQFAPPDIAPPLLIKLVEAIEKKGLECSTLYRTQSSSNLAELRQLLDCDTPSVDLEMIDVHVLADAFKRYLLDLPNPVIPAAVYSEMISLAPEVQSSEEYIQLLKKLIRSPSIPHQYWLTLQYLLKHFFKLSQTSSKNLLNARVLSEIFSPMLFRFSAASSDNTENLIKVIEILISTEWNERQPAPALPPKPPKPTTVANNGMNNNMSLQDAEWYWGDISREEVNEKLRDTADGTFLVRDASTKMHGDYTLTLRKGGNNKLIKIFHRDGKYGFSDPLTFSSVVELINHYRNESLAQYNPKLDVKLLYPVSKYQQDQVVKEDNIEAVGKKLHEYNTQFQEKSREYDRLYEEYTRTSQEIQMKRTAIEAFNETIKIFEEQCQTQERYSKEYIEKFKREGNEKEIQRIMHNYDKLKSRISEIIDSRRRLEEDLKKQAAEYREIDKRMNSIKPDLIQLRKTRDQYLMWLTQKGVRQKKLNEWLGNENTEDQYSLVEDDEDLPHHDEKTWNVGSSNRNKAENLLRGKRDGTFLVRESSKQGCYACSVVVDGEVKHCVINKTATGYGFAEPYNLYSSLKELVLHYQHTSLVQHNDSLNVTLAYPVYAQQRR
T2 sequence (P42338 whole entry): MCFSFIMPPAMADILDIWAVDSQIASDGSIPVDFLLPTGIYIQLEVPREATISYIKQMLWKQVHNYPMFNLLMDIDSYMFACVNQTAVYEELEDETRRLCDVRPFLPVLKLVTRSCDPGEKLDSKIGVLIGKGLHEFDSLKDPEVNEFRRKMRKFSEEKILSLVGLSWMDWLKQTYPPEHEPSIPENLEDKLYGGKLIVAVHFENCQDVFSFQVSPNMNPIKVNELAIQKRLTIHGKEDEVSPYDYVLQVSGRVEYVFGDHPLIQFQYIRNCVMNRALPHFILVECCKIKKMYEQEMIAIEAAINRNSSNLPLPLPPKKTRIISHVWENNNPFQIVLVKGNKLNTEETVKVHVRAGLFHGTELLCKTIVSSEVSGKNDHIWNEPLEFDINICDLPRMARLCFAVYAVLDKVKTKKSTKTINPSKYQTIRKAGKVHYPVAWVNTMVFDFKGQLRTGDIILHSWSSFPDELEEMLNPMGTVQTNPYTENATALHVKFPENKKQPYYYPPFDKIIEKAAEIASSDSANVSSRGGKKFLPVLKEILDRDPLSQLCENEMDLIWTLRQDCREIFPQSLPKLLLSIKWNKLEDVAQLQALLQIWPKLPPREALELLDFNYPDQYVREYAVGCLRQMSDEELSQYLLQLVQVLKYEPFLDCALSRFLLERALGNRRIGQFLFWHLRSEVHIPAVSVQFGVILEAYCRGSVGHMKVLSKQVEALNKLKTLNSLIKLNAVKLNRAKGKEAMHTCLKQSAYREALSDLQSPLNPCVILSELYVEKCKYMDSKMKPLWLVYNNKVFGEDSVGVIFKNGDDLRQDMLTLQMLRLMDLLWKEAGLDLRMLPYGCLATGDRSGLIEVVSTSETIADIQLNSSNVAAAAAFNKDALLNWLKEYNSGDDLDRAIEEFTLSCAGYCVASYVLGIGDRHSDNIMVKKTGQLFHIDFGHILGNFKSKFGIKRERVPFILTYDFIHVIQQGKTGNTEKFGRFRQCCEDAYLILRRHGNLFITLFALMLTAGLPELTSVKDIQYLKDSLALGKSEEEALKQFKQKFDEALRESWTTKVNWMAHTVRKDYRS
T2 sequence (P27986 whole entry partner): as the sequence (P27986 whole entry partner) above
T6 sequence (O00329 whole entry): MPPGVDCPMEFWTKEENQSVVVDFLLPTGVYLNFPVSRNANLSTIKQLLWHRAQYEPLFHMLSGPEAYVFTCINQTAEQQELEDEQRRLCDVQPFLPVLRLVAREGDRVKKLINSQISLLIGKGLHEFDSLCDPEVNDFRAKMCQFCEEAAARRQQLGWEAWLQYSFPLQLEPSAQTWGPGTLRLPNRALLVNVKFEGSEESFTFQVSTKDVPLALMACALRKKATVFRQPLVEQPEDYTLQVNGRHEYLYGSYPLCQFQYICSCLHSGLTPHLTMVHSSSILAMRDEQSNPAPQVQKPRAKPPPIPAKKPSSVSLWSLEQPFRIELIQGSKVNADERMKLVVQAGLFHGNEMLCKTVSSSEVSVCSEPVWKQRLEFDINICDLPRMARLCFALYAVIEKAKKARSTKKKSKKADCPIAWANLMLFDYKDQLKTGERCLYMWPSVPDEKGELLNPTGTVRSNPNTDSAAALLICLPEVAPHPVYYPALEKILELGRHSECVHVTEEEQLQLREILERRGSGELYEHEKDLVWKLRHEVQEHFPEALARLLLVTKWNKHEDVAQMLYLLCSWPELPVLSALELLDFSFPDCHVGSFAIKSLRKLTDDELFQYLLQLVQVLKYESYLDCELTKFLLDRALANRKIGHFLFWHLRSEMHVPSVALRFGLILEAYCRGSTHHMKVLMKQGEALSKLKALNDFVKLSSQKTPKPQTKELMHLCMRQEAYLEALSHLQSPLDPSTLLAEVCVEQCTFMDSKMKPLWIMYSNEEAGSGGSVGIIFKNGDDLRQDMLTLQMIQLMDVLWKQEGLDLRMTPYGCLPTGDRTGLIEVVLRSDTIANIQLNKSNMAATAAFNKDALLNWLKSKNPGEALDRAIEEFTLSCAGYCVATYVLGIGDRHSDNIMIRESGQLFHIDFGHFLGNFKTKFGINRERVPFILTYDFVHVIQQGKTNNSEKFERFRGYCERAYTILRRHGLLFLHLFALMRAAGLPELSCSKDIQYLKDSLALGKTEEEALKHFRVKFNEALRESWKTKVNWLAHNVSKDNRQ
T6 sequence (P27986 whole entry partner): as the sequence (P27986 whole entry partner) above

Consider `C[C@H]1COCCN1c1cc(-c2cc(F)ccc2S(C)(=O)=O)nc(-c2ccc(NC(=O)NCCO)cc2F)n1` [Example 72, (S)-1-(3-fluoro-4-(4-(5-fluoro-2-(methylsulfonyl)phenyl)-6-(3-methylmorpholino)pyrimidin-2-yl)phenyl)-3-(2-hydroxyethyl)urea], for which the IC50 is 0.1 to 1 µM on mTOR (Table 2, Jurkat cell lysate, read-out: Inhibition values (IC50) mTor); 0.1 to 1 µM at mTOR (setting [3]); 0.1 to 1 µM in experiment [1]; at least 10 µM at PI3Kβ; at least 10 µM in experiment [2] (Table 2, Jurkat cell lysate, read-out: Inhibition values (IC50) DNAPK); at least 10 µM in experiment [2] (setting [4]). Besides, the IC50 at PI3Kα was at least 10 µM; on PI3Kγ, at least 10 µM; at PI3K delta (PI3Kd) (Table 2, Jurkat cell lysate, read-out: Inhibition values (IC50) PI3Kd) it was at least 10 µM; on PI3K delta (PI3Kd) (setting [5]), at least 10 µM.
Take `C[C@H](CO)NC(=O)Nc1ccc(-c2cc(-c3cc(F)ccc3S(C)(=O)=O)nc(N3CCOC[C@@H]3C)n2)cc1` [Example 73, 1-(4-(6-(5-fluoro-2-(methylsulfonyl)phenyl)-2-((S)-3-methylmorpholino)pyrimidin-4-yl)phenyl)-3-((R)-1-hydroxypropan-2-yl)urea]: the IC50 was 0.1 to 1 µM on mTOR (setting [3]); under 0.1 µM in experiment [1]; at least 10 µM at PI3Kβ; at least 10 µM in experiment [2] (setting [4]); at least 10 µM on PI3Kα; at least 10 µM on PI3Kγ. For the same compound, the IC50 at PI3K delta (PI3Kd) (setting [5]) was at least 10 µM.
As for `C[C@H]1COCCN1c1nc(-c2ccc(NC(=O)NC3(CO)CCC3)cc2)cc(-c2cc(F)ccc2S(C)(=O)=O)n1` [Example 75, (S)-1-(4-(6-(5-fluoro-2-(methylsulfonyl)phenyl)-2-(3-methylmorpholino)pyrimidin-4-yl)phenyl)-3-(1-(hydroxymethyl)cyclobutyl)urea], the IC50 on mTOR (setting [3]) is 0.1 to 1 µM; in experiment [1], 0.1 to 1 µM; on PI3Kβ it was at least 10 µM; in experiment [2] (setting [4]), at least 10 µM; at PI3Kα, at least 10 µM; on PI3Kγ it was at least 10 µM. Also, the IC50 at PI3K delta (PI3Kd) (setting [5]) was at least 10 µM.
Regarding `COC1CC(NC(=O)Nc2ccc(-c3cc(-c4cc(F)ccc4S(C)(=O)=O)nc(N4CCOC[C@@H]4C)n3)cc2)C1` (stereo partly drawn) [Example 79, (S)-1-(4-(6-(5-fluoro-2-(methylsulfonyl)phenyl)-2-(3-methylmorpholino)pyrimidin-4-yl)phenyl)-3-(3-methoxycyclobutyl)urea], the IC50 was 1 to 10 µM at mTOR (setting [3]); 0.1 to 1 µM in experiment [1]; at least 10 µM on PI3Kβ; at least 10 µM in experiment [2] (setting [4]); at least 10 µM at PI3Kα; at least 10 µM on PI3Kγ. Further, the IC50 at PI3K delta (PI3Kd) (setting [5]) is at least 10 µM.
With `C[C@H]1COCCN1c1cc(-c2ccccc2S(C)(=O)=O)nc(-c2ccc(NC(=O)NCCO)cc2)n1` [Example 80, (S)-1-(2-hydroxyethyl)-3-(4-(4-(3-methylmorpholino)-6-(2-(methylsulfonyl)phenyl)pyrimidin-2-yl)phenyl)urea], the IC50 at mTOR (setting [3]) was under 0.1 µM; in experiment [1] it was under 0.1 µM; on PI3Kβ it was at least 10 µM; in experiment [2] (setting [4]) it was at least 10 µM; on PI3Kα, at least 10 µM; at PI3Kγ, at least 10 µM. Further, the IC50 on PI3K delta (PI3Kd) (setting [5]) is at least 10 µM.
In the case of `CS(=O)(=O)c1ccc(F)cc1-c1cc(-c2ccc(NC(=O)NC3CC3)cc2)nc(N2CC3CCC(C2)O3)n1` [Example 81, 1-(4-(2-(8-oxa-3-azabicyclo[3.2.1]octan-3-yl)-6-(5-fluoro-2-(methylsulfonyl)phenyl)pyrimidin-4-yl)phenyl)-3-cyclopropylurea], the IC50 is 0.1 to 1 µM at mTOR (setting [3]); under 0.1 µM in experiment [1]; at least 10 µM on PI3Kβ; at least 10 µM in experiment [2] (setting [4]); at least 10 µM on PI3Kα; at least 10 µM on PI3Kγ. Besides, the IC50 at PI3K delta (PI3Kd) (setting [5]) is at least 10 µM.
Consider `C[C@@H](O)CNC(=O)Nc1ccc(-c2cc(-c3cc(F)ccc3S(C)(=O)=O)nc(N3CCOC[C@@H]3C)n2)cc1` [Example 82], for which the IC50 at mTOR (setting [3]) is 1 to 10 µM; in experiment [1] it was under 0.1 µM; on PI3Kβ, at least 10 µM; in experiment [2] (setting [4]), at least 10 µM; on PI3Kα it was at least 10 µM; on PI3Kγ, at least 10 µM. Further, at PI3K delta (PI3Kd) (setting [5]), the IC50 was at least 10 µM.
On to `C[C@H](O)CNC(=O)Nc1ccc(-c2cc(-c3cc(F)ccc3S(C)(=O)=O)nc(N3CCOC[C@@H]3C)n2)cc1` [Example 83, 1-(4-(6-(5-fluoro-2-(methylsulfonyl)phenyl)-2-((S)-3-methylmorpholino)pyrimidin-4-yl)phenyl)-3-((S)-2-hydroxypropyl)urea], for which the IC50 is 0.1 to 1 µM at mTOR (setting [3]); under 0.1 µM in experiment [1]; at least 10 µM on PI3Kβ; at least 10 µM in experiment [2] (setting [4]); at least 10 µM at PI3Kα; at least 10 µM at PI3Kγ. For the same compound, at PI3K delta (PI3Kd) (setting [5]), the IC50 is at least 10 µM.
Turning to `C[C@H]1COCCN1c1nc(-c2ccc(NC(=O)NCCN)cc2)cc(-c2cc(F)ccc2S(C)(=O)=O)n1` [Example 84, (S)-1-(2-aminoethyl)-3-(4-(6-(5-fluoro-2-(methylsulfonyl)phenyl)-2-(3-methylmorpholino)pyrimidin-4-yl)phenyl)urea], the IC50 on mTOR (setting [3]) was 0.1 to 1 µM; in experiment [1] it was 1 to 10 µM; at PI3Kβ, at least 10 µM; in experiment [2] (setting [4]), at least 10 µM; at PI3Kα, at least 10 µM; at PI3Kγ, at least 10 µM. Also, the IC50 on PI3K delta (PI3Kd) (setting [5]) was at least 10 µM.
Turning to `C[C@H]1COCCN1c1nc(-c2ccc(NC(=O)NC3COC3)cc2)cc(-c2cc(F)ccc2S(C)(=O)=O)n1` [Example 86, (S)-1-(4-(6-(5-fluoro-2-(methylsulfonyl)phenyl)-2-(3-methylmorpholino)pyrimidin-4-yl)phenyl)-3-(oxetan-3-yl)urea], the IC50 was 0.1 to 1 µM on mTOR (setting [3]); 0.1 to 1 µM in experiment [1]; at least 10 µM on PI3Kβ; at least 10 µM in experiment [2] (setting [4]); at least 10 µM at PI3Kα; at least 10 µM on PI3Kγ. For the same compound, the IC50 on PI3K delta (PI3Kd) (setting [5]) was at least 10 µM.
As to `CCS(=O)(=O)c1ccccc1-c1cc(-c2ccc(NC(=O)NC3CC3)cc2)nc(N2CCOC[C@@H]2C)n1` [Example 87, (S)-1-cyclopropyl-3-(4-(6-(2-(ethylsulfonyl)phenyl)-2-(3-methylmorpholino)pyrimidin-4-yl)phenyl)urea], the IC50 at mTOR (setting [3]) is 0.1 to 1 µM; in experiment [1] it was under 0.1 µM; on PI3Kβ, at least 10 µM; in experiment [2] (setting [4]), at least 10 µM; at PI3Kα, at least 10 µM; at PI3Kγ, at least 10 µM. In addition, the IC50 at PI3K delta (PI3Kd) (setting [5]) is at least 10 µM.
As to `C[C@H]1COCCN1c1nc(-c2ccc(NC(=O)NC3CC3)cc2)cc(-c2ccccc2S(=O)(=O)N2CCCC2)n1` [Example 88, (S)-1-cyclopropyl-3-(4-(2-(3-methylmorpholino)-6-(2-(pyrrolidin-1-ylsulfonyl)phenyl)pyrimidin-4-yl)phenyl)urea], the IC50 at mTOR (setting [3]) is 1 to 10 µM; in experiment [1], under 0.1 µM; at PI3Kβ, at least 10 µM; in experiment [2] (setting [4]), at least 10 µM; at PI3Kα, at least 10 µM; at PI3Kγ, at least 10 µM. For the same compound, the IC50 at PI3K delta (PI3Kd) (setting [5]) was at least 10 µM.
